Source: patent US9840494B2, “Quinazoline derivative” (Tianjin Hemay Oncology Pharmaceutical Co., Ltd., priority 2013, dated 2017)

Experiment: Bioavailability assay, Experiment III (free base)
Type: in vivo
Settings: Wistar rats
Protocol: Experiment III. Bioavailability Assay for N-[4-(3-chloro-4-fluorophenylamino)-7-(2-methoxyethoxy)quinazolin-6-yl]-2-[1-(2-methoxyethyl)piperidin-4-ylidene]acetamide
8 Wistar rats (male, weighing 160-190 g) were purchased from Laboratory Animal Center, Chinese PLA Academy of Military Medical Sciences. License No.: SCXK (Army) 2012-0004; Certificate No.: 0037074.
1) the compound was precisely weighed in a 10 ml glass tube;
2) The volume of DMSO was 2% of the total volume and DMSO was pipetted. The tip of the pipette was slowly rotated with being pressed against the inner wall of the centrifuge tube, and DMSO was pipetted in several times to dissolve the compound adsorbed on the wall of the centrifuge tube. After all the compound was transferred to the bottom portion of the centrifuge tube, the compound was dissolved by vortex and then placed in a water bath at 80° C.;
3) polyoxylethylene 35-castor oil of which the volume was 6% of the total volume was added and vortex;
4) sodium chloride solution for injection (0.9%) of which the volume was 92% of the total volume was added and vortexed to give a clear solution which will be used within 60 min
8 rats were fasted and ad libitum accessed to water for 12 h before administration. They were randomly divided into two groups, i.e. four rats per group, and were administered with the drug according to the administration scheme. Blood (about 0.5 ml) was drawn from the orbital venous plexus before dosing and at 5 min, 0.5 h, 1 h, 2 h, 3 h, 4 h, 5 h, 6 h and 8 h after dosing, and put into a heparinized centrifuge tube and centrifuged at 8000 r/min for 10 min 100 μl of the plasma was recovered, and 200 μl of 0.2% acetic acid in methanol (containing an internal standard (irbesartan, 20 ng/ml)) was added thereto to precipitate protein, vortexed for 2 min and centrifuged at 13000 r/min for 10 min The supernatant was obtained, and 20 μl of the supernatant was injected for detection.
Chromatographic column: phenomenex Synergi Polar-RP (150×4.6 mm, 2.5 μm)
Flow rate: 1 ml/min; column temperature: 40° C.
Mobile phase: A phase: 5 mM aqueous solution of ammonium formate; B phase: methanol, and the gradient was as follows: […]
API3000 LC-MS/MS; ESI source; MRM positive ion scan mode; and the parameters were as follows:
The main pharmacokinetic parameters and oral bioavailability results were calculated by using DAS2.0 (statistical moment).
Method for the calculation of bioavailability: F=(AUCig×Div)/(AUCiv×Dig)×100%
wherein D is dose; AUC: the area under the plasma drug concentration-time curve; ig represents intragastric administration; and iv represents intravenous injection administration.

[1] = 20 mg/kg intragastric gavage, preformulation
[2] = 20 mg/kg tail intravenous injection, preformulation
[3] = male, rat, plasma, po, 20 mg/kg intragastric gavage, preformulation
[4] = male, rat, plasma, 20 mg/kg tail intravenous injection, preformulation

COCCOc1cc2ncnc(Nc3ccc(F)c(Cl)c3)c2cc1NC(=O)C=C1CCN(CCOC)CC1 [Compound 1, N-[4-(3-chloro-4-fluorophenylamino)-7-(2-methoxyethoxy)quinazolin-6-yl]-2-[1-(2-methoxyethyl)piperidin-4-ylidene]acetamide]
CLz/F [1]: 103 mL/min/kg | t½z [1]: 4.59 h | CLz [2]: 24.7 mL/min/kg | t½z [2]: 4.39 h | bioavailability (male, rat, plasma, oral, 20 mg/kg ig vs 20 mg/kg iv): 23.9% | AUC(0-inf) [3]: 3320 ng·h/mL | AUC(0-t) [3]: 2190 ng·h/mL | Cmax [3]: 416 ng/mL | Tmax [3]: 2.5 h | Vd/F (male, rat, plasma, po, 20 mg/kg intragastric gavage, preformulation, read-out: Vz/F): 39.2 L/kg | AUC(0-inf) [4]: 13900 ng·h/mL | AUC(0-t) [4]: 11800 ng·h/mL | Cmax [4]: 13200 ng/mL | Tmax [4]: 0.083 h | Vd (male, rat, plasma, 20 mg/kg tail intravenous injection, preformulation, read-out: Vz): 9.55 L/kg
